biological target: Human immunodeficiency virus type 1 integrase (Human immunodeficiency virus 1, UniProt Q7ZJM1); assay: Inhibition of Human immunodeficiency virus 1 integrase
Sequence (Q7ZJM1 whole entry): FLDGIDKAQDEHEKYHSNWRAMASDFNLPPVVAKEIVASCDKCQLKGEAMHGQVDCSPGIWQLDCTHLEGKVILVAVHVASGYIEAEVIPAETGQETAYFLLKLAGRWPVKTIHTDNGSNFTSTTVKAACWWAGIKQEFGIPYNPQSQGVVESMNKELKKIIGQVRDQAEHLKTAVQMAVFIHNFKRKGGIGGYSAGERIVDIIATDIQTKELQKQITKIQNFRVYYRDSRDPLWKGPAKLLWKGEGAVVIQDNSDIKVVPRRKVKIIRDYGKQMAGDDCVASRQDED

Row | SMILES | IC50 [µM]
1 | CN(C)c1ccc(C(c2c(O)c3ccccc3oc2=O)c2c(O)c3ccccc3oc2=O)cc1 | 49
2 | O=c1oc2cc(O)ccc2c(O)c1C(c1ccccc1)c1c(O)c2ccc(O)cc2oc1=O | 22.2
3 | O=c1oc2ccccc2c(O)c1C(c1ccc(-c2ccccc2)cc1)c1c(O)c2ccccc2oc1=O | 13
4 | O=C(O)/C(O)=C/C(=O)c1cc2ccccc2n1Cc1ccccc1 | 1
5 | O=c1oc2ccccc2c(O)c1-c1ccccc1-c1c(O)c2ccccc2oc1=O | 20.4
6 | O=c1oc2cc(O)ccc2c(O)c1Cc1c(O)c2ccc(O)cc2oc1=O | 44.9
7 | O=c1oc2ccccc2c(O)c1C(c1cccc(C(c2c(O)c3ccccc3oc2=O)c2c(O)c3ccccc3oc2=O)c1)c1c(O)c2ccccc2oc1=O | 1.2
8 | Cn1c(C(=O)/C=C(\O)C(=O)O)cc2cc3c(cc21)OCO3 | 2
9 | O=c1oc2ccccc2c(O)c1C(c1cccs1)c1c(O)c2ccccc2oc1=O | 148
10 | O=c1oc2cc(O)ccc2c(O)c1C(c1ccc(CCc2ccccc2)cc1)c1c(O)c2ccc(O)cc2oc1=O | 1.8
11 | O=c1oc2ccccc2c(O)c1C(c1ccco1)c1c(O)c2ccccc2oc1=O | 132
12 | O=c1oc2ccccc2c(O)c1C(c1ccccc1)c1c(O)c2ccccc2oc1=O | 38
13 | CCn1c(C(=O)/C=C(\O)C(=O)O)cc2cc3c(cc21)OCO3 | 5
14 | CCn1cc(C(=O)/C=C(\O)C(=O)O)c2ccccc21 | 3
15 | Cn1c(C(=O)/C=C(\O)C(=O)O)cc2ccccc21 | 6
16 | O=C(O)/C(O)=C/C(=O)c1cn(Cc2ccccc2)c2ccccc12 | 1
17 | O=c1oc2ccccc2c(O)c1C(c1ccc(O)cc1)c1c(O)c2ccccc2oc1=O | 74.1
18 | O=c1oc2cc(O)ccc2c(O)c1C(c1ccc(C(c2c(O)c3ccc(O)cc3oc2=O)c2c(O)c3ccc(O)cc3oc2=O)cc1)c1c(O)c2ccc(O)cc2oc1=O | 3.03
19 | O=C(O)/C(O)=C/C(=O)c1cc2cc3c(cc2n1Cc1ccccc1)OCO3 | 2
20 | CCn1c(C(=O)/C=C(\O)C(=O)O)cc2ccccc21 | 1.6
21 | Cn1cc(C(=O)/C=C(\O)C(=O)O)c2cc3c(cc21)OCO3 | 3
22 | O=c1oc2ccccc2c(O)c1C(c1cnc2c(c1)CC=CC2)c1c(O)c2ccccc2oc1=O | 23
23 | O=c1oc2ccccc2c(O)c1C(c1ccc2c(c1)CC=CC2)c1c(O)c2ccccc2oc1=O | 16
24 | O=c1oc2cc(O)ccc2c(O)c1C(c1cccnc1)c1c(O)c2ccc(O)cc2oc1=O | 25
25 | O=c1oc2ccccc2c(O)c1-c1cccc(-c2c(O)c3ccccc3oc2=O)c1 | 11
26 | O=c1oc2ccccc2c(O)c1C(c1ccc(OCc2ccccc2)c(OCc2ccccc2)c1)c1c(O)c2ccccc2oc1=O | 12
27 | Cn1cc(C(=O)/C=C(\O)C(=O)O)c2ccccc21 | 2
28 | O=c1oc2ccccc2c(O)c1Cc1ccc(Cc2c(O)c3ccccc3oc2=O)cc1 | 69.2
29 | O=c1oc2cc(O)ccc2c(O)c1C(c1ccc2c(c1)CC=CC2)c1c(O)c2ccc(O)cc2oc1=O | 3.5
30 | CCn1cc(C(=O)/C=C(\O)C(=O)O)c2cc3c(cc21)OCO3 | 3
